Data reported in US20110033850A1, “COMPOSITIONS AND METHODS FOR THE IDENTIFICATION OF INHIBITORS OF RETROVIRAL INFECTION” (priority 2007, published 2011).

Test system: HIV
Experiment: anti-HIV activity in freshly harvested PBMC cells (secondary HIV assay)
Type: cell-based
Procedure: These compounds were analyzed for anti-HIV activity in freshly harvested PBMC cells. Of the 30 tested compounds, 15 were active at a concentration of less than 100 ˜M (the highest tested concentration). Of these 15 compounds, 9 were […] to the PBMC cells at the 100 ˜M concentration; thus, an absolute conclusion regarding the differential toxicity to HIV and PBMC cells cannot be drawn with these 9 compounds. […]

| Compound | anti-HIV activity [µM] |
| --- | --- |
| CN(C)c1cccc2c(C=O)ccc(N(C)C)c12 | 0.022 |
| O=C1c2ccccc2C(=O)c2c1nc1ccccn21 [naphtho[2′,3′,4,5]imidazo[1,2-a]pyridine-6,11-dione] | 0.63 |
